# Results as given in US9023821B2, “Use of MicroRNA for treating diseases associated with a dysfunction of the cilia in multiciliated epithelial cells” (Centre National de la Recherche Scientifique, priority 2009, dated 2015).
# Columns and labels:
# [1] = tested on: human airway epithelial cells (HAECs); assay: Agilent miRNA chips, miRNA expression at four stages of differentiation of HAECs; settings: for Modulation (ratio of the level of intensity of expression in log2 in two stages of differentiation) measured with the Agilent chips, D7 − D0 / Modulation (ratio of the level of intensity of expression in log2 in two stages of differentiation) measured with the Agilent chips, FC − D7 / Modulation (ratio of the level of intensity of expression in log2 in two stages of differentiation) measured with the Agilent chips, WD − D0 / Modulation (ratio of the level of intensity of expression in log2 in two stages of differentiation) measured with the Agilent chips, WD − FC / Level of intensity of expression in log2 measured with the Agilent chips, D0 / Level of intensity of expression in log2 measured with the Agilent chips, D7 / Level of intensity of expression in log2 measured with the Agilent chips, FC / Level of intensity of expression in log2 measured with the Agilent chips, WD: Table VI; for Modulation (ratio of the level of intensity of expression in log2 at two stages of differentiation), FC − D7 / Modulation (ratio of the level of intensity of expression in log2 at two stages of differentiation), WD − FC: Agilent miRNA chips, Table V; for Level of intensity of expression in log2 measured with the Agilent chips, D0: stage D0; for Level of intensity of expression in log2 measured with the Agilent chips, D7: stage D7; for Level of intensity of expression in log2 measured with the Agilent chips, FC: stage FC; for Level of intensity of expression in log2 measured with the Agilent chips, WD: stage WD
# Outline: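 Expression read from hybridization signals on Human miRNA Microarray v2 arrays spanning all miRBase v.12.0 human miRNAs plus 89 viral ones. Samples are RNA from the same patients profiled by sequencing, labelled with the standard kit.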
# [2] = tested on: human airway epithelial cells (HAECs); assay: High-throughput sequencing (HTS) of miRNAs at four stages of differentiation of HAECs; settings: for Modulation (ratio of the level of intensity of expression in log2 in two stages of differentiation) measured by high-throughput sequencing, D7 − D0 / Modulation (ratio of the level of intensity of expression in log2 in two stages of differentiation) measured by high-throughput sequencing, FC − D7 / Modulation (ratio of the level of intensity of expression in log2 in two stages of differentiation) measured by high-throughput sequencing, WD − D0 / Modulation (ratio of the level of intensity of expression in log2 in two stages of differentiation) measured by high-throughput sequencing, WD − FC / Level of intensity of expression in log2 measured by high-throughput sequencing, D0 / Level of intensity of expression in log2 measured by high-throughput sequencing, D7 / Level of intensity of expression in log2 measured by high-throughput sequencing, FC / Level of intensity of expression in log2 measured by high-throughput sequencing, WD: Table VI; for Level of intensity of expression in log2 At the differentiated stage (WD) measured in HTS: healthy human airway epithelial tissue; for Level of intensity of expression in log2 measured by high-throughput sequencing, D0: stage D0; for Level of intensity of expression in log2 measured by high-throughput sequencing, D7: stage D7; for Level of intensity of expression in log2 measured by high-throughput sequencing, FC: stage FC; for Level of intensity of expression in log2 At the differentiated stage (WD) measured in HTS / Level of intensity of expression in log2 measured by high-throughput sequencing, WD: stage WD
# Outline: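 Differentiation time course at air-liquid interface: 0, 7, ~14 (first cilia) and ~21 days (fully differentiated). Sequencing counts per strand were normalized to 10^6 sequences and analysed by linear model with empirical Bayesian moderation.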
# [3] = tested on: basal cells and pyramidal cells of the airway epithelium; assay: miRNA expression in sorted basal cells versus pyramidal cells (ciliated + secretory), HTS and Agilent chips; design: species or system human; settings: for Modulation of expression of the miRNAs in pyramidal cells (323(−)) relative to basal cells 323(+): HTS and Agilent chips; for Intensity of the level of expression in log2 in pyramidal cells (323(−)): pyramidal cells (ciliated + secretory)
# Outline: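 Sorted basal versus ciliated/mucus-secreting cells; markers CD151 and tissue factor; donors n=3; miRNA by Agilent chip or HTS.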
Substance,"Modulation (ratio of the level of intensity of expression in log2 in two stages of differentiation) measured with the Agilent chips, D7 − D0 [1] [log2]","Modulation (ratio of the level of intensity of expression in log2 in two stages of differentiation) measured with the Agilent chips, FC − D7 [1] [log2]","Modulation (ratio of the level of intensity of expression in log2 in two stages of differentiation) measured with the Agilent chips, WD − D0 [1] [log2]","Modulation (ratio of the level of intensity of expression in log2 in two stages of differentiation) measured with the Agilent chips, WD − FC [1] [log2]","Level of intensity of expression in log2 measured with the Agilent chips, D0 [1] [log2]","Level of intensity of expression in log2 measured with the Agilent chips, D7 [1] [log2]","Level of intensity of expression in log2 measured with the Agilent chips, FC [1] [log2]","Level of intensity of expression in log2 measured with the Agilent chips, WD [1] [log2]","Modulation (ratio of the level of intensity of expression in log2 in two stages of differentiation) measured by high-throughput sequencing, D7 − D0 [2] [log2]","Modulation (ratio of the level of intensity of expression in log2 in two stages of differentiation) measured by high-throughput sequencing, FC − D7 [2] [log2]","Modulation (ratio of the level of intensity of expression in log2 in two stages of differentiation) measured by high-throughput sequencing, WD − D0 [2] [log2]","Modulation (ratio of the level of intensity of expression in log2 in two stages of differentiation) measured by high-throughput sequencing, WD − FC [2] [log2]",Level of intensity of expression in log2 At the differentiated stage (WD) measured in HTS [2] [log2],"Level of intensity of expression in log2 measured by high-throughput sequencing, D0 [2] [log2]","Level of intensity of expression in log2 measured by high-throughput sequencing, D7 [2] [log2]","Level of intensity of expression in log2 measured by high-throughput sequencing, FC [2] [log2]","Level of intensity of expression in log2 measured by high-throughput sequencing, WD [2] [log2]",Modulation of expression of the miRNAs in pyramidal cells (323(−)) relative to basal cells 323(+) [3],Intensity of the level of expression in log2 in basal cells (323(+)) [3] [log2],Intensity of the level of expression in log2 in pyramidal cells (323(−)) [3] [log2],also measured
"hsa-miR-365: human miRNA, SEQ ID No. 41 (UAAUGCCCCUAAAAAUCCUUAU; expressed or natural sequence; listed as Homo sapiens)",−0.02,−1.21,−1.18,0.05,8.44,8.41,7.21,7.25,−0.39,0.00,−0.39,0.00,2.78,0.41,0.01,0.01,0.01,−0.99,4.83,3.84,"Modulation (ratio of the level of intensity of expression in log2 at two stages of differentiation), FC − D7 [1]: −1.21 log2; Modulation (ratio of the level of intensity of expression in log2 at two stages of differentiation), WD − FC [1]: 0.05 log2"
"hsa-miR-374a: human miRNA, SEQ ID No. 42 (UUAUAAUACAACCUGAUAAGUG; expressed or natural sequence; listed as Homo sapiens)",1.41,−0.54,0.79,−0.08,7.04,8.45,7.91,7.83,−0.33,1.74,2.16,0.74,11.87,0.62,0.30,2.04,2.78,−1.04,4.26,3.22,"Modulation (ratio of the level of intensity of expression in log2 at two stages of differentiation), FC − D7 [1]: −0.54 log2; Modulation (ratio of the level of intensity of expression in log2 at two stages of differentiation), WD − FC [1]: −0.08 log2"
"hsa-miR-378: human miRNA, SEQ ID No. 43 (ACUGGACUUGGAGUCAGAAGG; expressed or natural sequence; listed as Homo sapiens)",3.23,−0.81,2.16,−0.26,4.38,7.61,6.80,6.54,2.15,−0.26,1.50,−0.39,11.70,10.37,12.53,12.26,11.87,−2.43,4.11,1.68,"Modulation (ratio of the level of intensity of expression in log2 in two stages of differentiation), D7 − D0 ([2]; HTS): 2.15 log2; Modulation (ratio of the level of intensity of expression in log2 in two stages of differentiation), FC − D7 ([2]; HTS): −0.26 log2; Modulation (ratio of the level of intensity of expression in log2 in two stages of differentiation), WD − FC ([2]; HTS): −0.39 log2; Abundance (%), D0 ([2]; HTS, ALI-D0): 0.29%; Abundance (%), D7 ([2]; HTS, ALI-D7): 1.30%; Abundance (%), FC ([2]; HTS, ALI-FC): 1.04%; Abundance (%), WD ([2]; HTS, ALI-WD): 0.61%"
